Measured values taken from publication PMC8405091, “Microwave-assisted Phospha-Michael addition reactions in the 13α-oestrone series and in vitro antiproliferative properties” (Journal of Enzyme Inhibition and Medicinal Chemistry, 2021).

Legend:
[1] = test system: UPCI-SCC-131 cells; assay: MTT antiproliferative assay, UPCI-SCC-131; assay type: cell-based, human; settings: Homo sapiens, 72 h, 72 h; for inhibition at 10 µM / inhibition at 30 µM: read-out: Growth inhibition, % ± SEM; for inhibition at 10 µM: UPCI-SCC-131, 10 μM; for inhibition at 30 µM: UPCI-SCC-131, 30 μM; for IC50: read-out: calculated IC50 value
Procedure: (§1) The antiproliferative properties of the newly synthesized compounds (9–20) and their starting materials (4 and 5) were determined on a panel of human adherent cancer cell lines. MCF-7, MDA-MB-231 and T47D were isolated from breast cancers differing in biochemical background, while A2780 cells were isolated from ovarian cancer. HeLa and SiHa are cervical cancer cell lines positive for HPV-18 and HPV-16, respectively, while C33-A cervical cancer cells are negative for HPV. Moreover, two oropharyngeal cancer cell lines were also utilized: the HPV-negative UPCI-SCC-131 and HPV-16 positive UPCI-SCC-154. The cancer selectivity of compounds was tested on the non-cancerous mouse embryo fibroblast cell line NIH/3T3. All cell lines were purchased from European Collection of Cell Cultures (ECCAC, Salisbury, UK) exception for SiHa and C33-A (American Tissue Culture Collection, Manassas, VA, USA) and HN-SCC-131 and UPCI-SCC-154 (German Collection of Microorganisms and Cell Cultures GmbH, Braunschweig, Germany). Cells were cultivated in minimal essential medium supplemented with 10% fetal bovine serum, 1% non-essential amino acids and an antibiotic–antimycotic mixture. The medium of oropharyngeal cancer cells additionally contained 2.0 mM L-glutamine. All media and supplements were obtained from Lonza Group Ltd., Basel, Switzerland. Near-confluent cancer cells were seeded onto a 96-well microplate at a density of 5,000 cells/well, except for C33-A which were seeded at 10,000/well. After overnight standing, new medium containing the tested compounds at 10 and 30 µM final concentration was added. After incubation for 72 h at 37 °C in humidified air containing 5% CO2, the living cells were assayed by the addition of 20 μL of 5 mg/ml 3-(4,5-dimethylthiazol-2-yl)-2,5-diphenyltetrazolium bromide (MTT) solution. MTT was converted by intact mitochondrial reductase and precipitated as purple crystals during a 4-h contact period. The medium was next removed and the precipitated formazan crystals were dissolved in 100 μL of DMSO during a 60-min period of shaking at 37 ^оC.
(§2) All in vitro experiments were carried out twice with five parallels. Stock solutions of the tested substances (10 mM) were prepared in DMSO. […] Cisplatin (Ebewe Pharma GmbH, Unterach, Austria) was used as positive control.

[2] = test system: UPCI-SCC-154 cells; assay: MTT antiproliferative assay, UPCI-SCC-154; assay type: cell-based, human; settings: Homo sapiens, 72 h, 72 h; for inhibition at 10 µM / inhibition at 30 µM: read-out: Growth inhibition, % ± SEM; for inhibition at 10 µM: UPCI-SCC-154, 10 μM; for inhibition at 30 µM: UPCI-SCC-154, 30 μM; for IC50: read-out: calculated IC50 value
Procedure: as §1, §2

[3] = test system: HeLa cells; assay: MTT antiproliferative assay, HeLa; assay type: cell-based, human; settings: Homo sapiens, 72 h; for inhibition at 10 µM: read-out: Growth inhibition, % ± SEM, 10 μM; for inhibition at 30 µM: read-out: Growth inhibition, % ± SEM, 30 μM; for IC50: read-out: calculated IC50 value
Procedure: as §1, §2

[4] = test system: SiHa cells; assay: MTT antiproliferative assay, SiHa; assay type: cell-based, human; settings: Homo sapiens, 72 h; for inhibition at 10 µM: read-out: Growth inhibition, % ± SEM, 10 μM; for inhibition at 30 µM: read-out: Growth inhibition, % ± SEM, 30 μM; for IC50: read-out: calculated IC50 value
Procedure: as §1, §2

[5] = test system: C33-A cells; assay: MTT antiproliferative assay, C33-A; assay type: cell-based, human; settings: Homo sapiens, C-33-A, 72 h; for inhibition at 10 µM: read-out: Growth inhibition, % ± SEM, C33-A, 10 μM; for inhibition at 30 µM: read-out: Growth inhibition, % ± SEM, C33-A, 30 μM; for IC50: read-out: calculated IC50 value
Procedure: as §1, §2

[6] = test system: A2780 cells; assay: MTT antiproliferative assay, A2780; assay type: cell-based, human; settings: Homo sapiens, A2780, 72 h; for inhibition at 10 µM / inhibition at 30 µM: read-out: Growth inhibition, % ± SEM, 72 h; for inhibition at 10 µM: A2780, 10 μM; for inhibition at 30 µM: A2780, 30 μM; for IC50: read-out: calculated IC50 value
Procedure: as §1, §2

[7] = test system: MCF-7 cells; assay: MTT antiproliferative assay, MCF-7; assay type: cell-based, human; settings: Homo sapiens, MCF7, 72 h; for inhibition at 10 µM / inhibition at 30 µM: read-out: Growth inhibition, % ± SEM, 72 h; for inhibition at 10 µM: MCF-7, 10 μM; for inhibition at 30 µM: MCF-7, 30 μM; for IC50: read-out: calculated IC50 value
Procedure: as §1, §2

[8] = test system: MDA-MB-231 cells; assay: MTT antiproliferative assay, MDA-MB-231; assay type: cell-based, human; settings: Homo sapiens, MDA-MB-231, 72 h; for inhibition at 10 µM / inhibition at 30 µM: read-out: Growth inhibition, % ± SEM; for IC50: read-out: calculated IC50 value
Procedure: as §1, §2

[9] = test system: T47D cells; assay: MTT antiproliferative assay, T47D; assay type: cell-based, human; settings: Homo sapiens, 72 h; for inhibition at 10 µM: read-out: Growth inhibition, % ± SEM, 10 μM; for inhibition at 30 µM: read-out: Growth inhibition, % ± SEM, 30 μM; for IC50: read-out: calculated IC50 value
Procedure: as §1, §2

[10] = test system: non-cancerous mouse embryo fibroblast (NIH/3T3) cells; assay: MTT assay on non-cancerous fibroblasts (tumour selectivity); assay type: cell-based; settings: Mus musculus, NIH3T3, 72 h; for inhibition at 10 µM / inhibition at 30 µM: read-out: Growth inhibition, % ± SEM; for IC50: read-out: calculated IC50 value
Procedure: as §1, §2

[11] = test system: panel of human adherent cancer cell lines; assay: MTT antiproliferative assay, whole panel of cell lines; assay type: cell-based; settings: read-out: IC50 (span over the panel)
Procedure: as §1, with “^оC. […]” for “^оC.”

Row | SMILES | inhibition at 10 µM [1] | inhibition at 30 µM [1] | IC50 [1] | inhibition at 10 µM [2] | inhibition at 30 µM [2] | IC50 [2] | inhibition at 10 µM [3] | inhibition at 30 µM [3] | IC50 [3] | inhibition at 10 µM [4] | inhibition at 30 µM [4] | IC50 [4] | inhibition at 10 µM [5] | inhibition at 30 µM [5] | IC50 [5] | inhibition at 10 µM [6] | inhibition at 30 µM [6] | IC50 [6] | inhibition at 10 µM [7] | inhibition at 30 µM [7] | other results
1 | COc1ccc2c(c1)CC[C@@H]1[C@@H]2CC[C@@]2(C)C(=O)[C@@H](CP(=O)(c3ccc(C)cc3)c3ccc(C)cc3)C[C@@H]12 [Compound 14, [(3-methoxy-17-oxo-13α-oestra-1,3,5(10)-trien-16β-yl)methyl]di-p-tolylphosphine oxide] | 48.8 ± 1.5% | 97.3 ± 1.38% | 10.9 µM | < 20% | 87 ± 1.16% | 11.4 µM | < 20% | 99.14 ± 0.37% | 12.2 µM | < 20% | 93 ± 1.37% | 11.8 µM | 26.9 ± 2.13% | 101.1 ± 0.24% | 10.9 µM | < 20% | 100.3 ± 0.22% | 21.5 µM | < 20% | 90 ± 2.88% | IC50 [7]: 14.4 µM; inhibition at 10 µM [8]: < 20%; inhibition at 30 µM [8]: 98.22 ± 0.39%; IC50 [8]: 17.6 µM; inhibition at 10 µM [9]: 22.6 ± 1.33%; inhibition at 30 µM [9]: 86 ± 1.51%; IC50 [9]: 13.8 µM; inhibition at 10 µM [10]: < 20%; inhibition at 30 µM [10]: 52.7 ± 2.87%; IC50 [10]: 29.6 µM; IC50 [11]: 10 to 25 µM
2 | C[C@@]12CC[C@@H]3c4ccc(OCc5ccccc5)cc4CC[C@H]3[C@@H]1C[C@H](CP(=O)(c1ccccc1)c1ccccc1)C2=O [Compound 12, [(3-benzyloxy-17-oxo-13α-oestra-1,3,5(10)-trien-16β-yl)methyl]diphenylphosphine oxide] | 49.4 ± 2.06% | 90 ± 1.15% | 14.2 µM | < 20% | 75.5 ± 1.84% | 29.8 µM | < 20% | 96.4 ± 1.88% | 13.6 µM | < 20% | 94.8 ± 1.48% | 14.1 µM | < 20% | 97.68 ± 0.85% | 13.6 µM | < 20% | 97.14 ± 0.55% | 28.5 µM | < 20% | 90.2 ± 1.61% | IC50 [7]: 16.4 µM; inhibition at 10 µM [8]: < 20%; inhibition at 30 µM [8]: 84 ± 2.61%; IC50 [8]: 24.5 µM; inhibition at 10 µM [9]: 31.4 ± 1.55%; inhibition at 30 µM [9]: 75 ± 1.65%; IC50 [9]: 17 µM; inhibition at 10 µM [10]: < 20%; inhibition at 30 µM [10]: 48.3 ± 1.65%; IC50 [10]: 30.9 µM; IC50 [11]: 13.6 to 29.8 µM
